Laboratory results published in patent US20170333390A1, “PHYTOCHEMICAL COMPOSITIONS INCLUDING SESAMIN FOR ANTI-INFLAMMATORY, ANTI-CYTOKINE STORM, AND OTHER USES” (CHIANG MAI UNIVERSITY, priority 2009, published 2017).

Columns and labels:
[1] = system: IL-2 gene expression in LPS induced peripheral blood mononuclear cells (PBMCs); experiment: IL-2 gene expression relative to GAPDH in LPS induced PBMCs (RT-PCR); assay type: cell-based; conditions: 1.0 ug/ml sesamin (culture 4), LPS 20 ng/ml, 24 hours
Procedure: Experiments were conducted to evaluate the effect of particular phytochemical compositions provided by the present disclosure on IL-2 gene expression in specified cells found within a body of a living organism. Cells used for the experiment described in this example are LPS induced peripheral blood mononuclear cells (PBMCs). It is understood by a person having ordinary skill in the art that the PBMCs may be substituted for other immune cells found within the body. It is also understood by a person having ordinary skill in the art that other inducing substances or chemicals besides LPS, for example viral antigens, may also be used for inducing the PBMCs.
Preparation of PBMCs is done by standard isolation techniques or methods known to a person of ordinary skill in the art as with the experiments of example two. In addition, LPS can be obtained from a commercial source, for example Sigma-Aldrich Co. The PBMCs are cultured in 10% fetal calf serum in RPMI1640 medium. Five cultures of PBMCs, i.e. culture 1 to culture 5, were prepared. […]
The amount or level of IL-2 gene expression in the PBMCs was measured or determined using methods or techniques known to a person having ordinary skill in the relevant art. In example three, Real-Time PCR (RT-PCR) was used for quantifying the amount of IL-2 gene expression in the PBMCs.

[2] = system: influenza A (H1N1) virus-infected egg cells; experiment: Quantity of IL-1 released by influenza A (H1N1) virus-infected egg cells; assay type: cell-based; conditions: for quantity of IL-1 released: 24 hours, FIG. 5; for percentage of quantity of human IL-1 released relative to quantity of isolated egg cells (diluted 1:50): uninfected culture 1 = 100%, FIG. 6
Procedure: Experiments were conducted to evaluate the effects of particular phytochemical compositions provided by the present disclosure on quantity of IL-1 released by virus-infected cells. Virus-infected cells used for the experiments described in this example are influenza A (H1N1) virus-infected cells. More specifically, the virus-infected cells used for the experiments described in this example are influenza A (H1N1) virus-infected egg cells. The influenza A (H1N1) virus can be isolated from patients infected with the influenza A (H1N1) using standard techniques known to a person of ordinary skill in the art. In addition, isolation of cells (e.g., egg cells), and the infection of cells (e.g., isolated egg cells) can be performed using standard techniques or method known to a person of ordinary skill in the art. It is understood by a person having ordinary skill in the art that the influenza A (H1N1) virus-infected egg cells may be substituted for other viral-infected cells, or other cells found within the body, for instance, cells that that are involved in inflammatory responses within the body.
Six cultures of cells, i.e., culture 1 to culture 6, were prepared. The contents of each of cultures 1 to culture 6 are as follows: • (i) Culture 1: Control culture 1. Includes a predetermined volume of a sample of isolated egg cells that has been diluted in a ratio of 1:50; • (ii) Culture 2: Control culture 2. Includes the predetermined volume of the sample of isolated egg cells similar to that of culture 1 that have been infected with the influenza A (H1N1) virus diluted at a ratio of 1:7812500; • (iii) Culture 3: Control culture 3. Includes the predetermined volume of the sample of isolated egg cells similar to that of culture 1 and a volume of DMSO that has been infected with the influenza A (H1N1) virus diluted at a ratio of 1:7812500; • (iv) Culture 4: Includes the predetermined volume of the sample of isolated egg cells that have been infected with the influenza A (H1N1) virus similar to that of culture 2, and a volume of phytochemical composition providing sesamin at a concentration of 0.5 ug/ml; • (v) Culture 5: Includes the predetermined volume of the sample of isolated egg cells that have been infected with the influenza A (H1N1) virus similar to that of culture 2, and a volume of phytochemical composition providing sesamin at a concentration of 1.0 ug/ml; and • (vi) Culture 6: Includes the predetermined volume of the sample of isolated egg cells that have been infected with the influenza A (H1N1) virus similar to that of culture 2, and a volume of phytochemical composition providing sesamin at a concentration of 10.0 ug/ml.
In the experiments of example six, each of cultures 1 to 6 is made up to a final volume of approximately 200 μl in a well of a standard 96 well plate. It will be understood by a person of ordinary skill in the art that an alternative final volume (e.g., 100 μl) may also be used. The number or concentration of isolated egg cells used for each culture is approximately equal. For instance, the number of isolated egg cells used for each culture is approximately 2×10^5 (i.e., 200,000). It will be understood by a person of ordinary skill in the art that the number or concentration of isolated egg cells used for each of cultures 1 to 6 can be adjusted as required by varying the degree of dilution of the cultures (e.g., by increasing total volume of the culture by adding medium).
Each of cultures 1 to 6 was incubated at the same physical conditions for an equal length of time. More specifically, each culture was incubated at a temperature of 37° C. with 5% of carbon dioxide for 24 hours. The amount of IL-1 released from the isolated egg cells of each of cultures 1 to 6 was measured or determined using methods or techniques known to a person having ordinary skill in the relevant art.

In the case of c1cc2c(cc1[C@H]1OC[C@H]3[C@@H]1CO[C@@H]3c1ccc3c(c1)OCO3)OCO2 [sesamin], the “increase in IL-2 gene expression relative GAPDH” value [1] is reported as “approximately 220%”, the “quantity of IL-1 released” value ([2]; 0.5 ug/ml sesamin (culture 4)) is reported as “approximately 4 pg/ml” and the “percentage of quantity of human IL-1 released relative to quantity of isolated egg cells (diluted 1:50)” value ([2]; 0.5 ug/ml sesamin) is reported as “approximately 22%”. For the same compound, the “quantity of IL-1 released” value ([2]; 1.0 ug/ml sesamin (culture 5)) was “approximately 3.5 pg/ml”, the “percentage of quantity of human IL-1 released relative to quantity of isolated egg cells (diluted 1:50)” value ([2]; 1.0 ug/ml sesamin) was “approximately 18%” and the “quantity of IL-1 released” value ([2]; 10.0 ug/ml sesamin (culture 6)) was “approximately 3 pg/ml”. For the same compound, the “percentage of quantity of human IL-1 released relative to quantity of isolated egg cells (diluted 1:50)” value ([2]; 10.0 ug/ml sesamin) was “approximately 16%”.
